Measurements: patent US11324237B2, “Tasteful natural sweetener and flavor” (EPC Natural Products Co., Ltd., priority 2018, dated 2022)
Entries after “also recorded” stand apart in the source; their conditions may differ.

Tests used:
[1] = relative to sugar; cited from earlier work
[2] = Sensory evaluation of combinations of EPCalin, GSGs and SGs and NHDC in water (Example 234); type: in vivo, human; settings: 4.5 ppm Thaumatin and/or 50 ppm GSGs and SGs
Experimental: 4.5 ppm Thaumatin (equivalent to 10 ppm EPCalin) were dissolved in water. Increasing amounts of NHDC (1-5 ppm) were added to the solution and the sensory properties were evaluated.
50 ppm (GSGs and SGs) were dissolved in water. Increasing amounts of NHDC (1-5 ppm) were added to the solution and the sensory properties were evaluated.
50 ppm (GSGs and SGs) and 4.5 ppm Thaumatin (equivalent to 10 ppm EPCalin) were dissolved in water. Increasing amounts of NHDC (1-5 ppm) were added to the solution and the sensory properties were evaluated.
Sweetness Intensity was Rated on 5-Point Scale

[3] = Stevia-derived MRPs with NHDC and thaumatin, alone and in Redbull sugar free (Example 240); type: in vivo, human; settings: added before heating to stevia derived MRP; 150 μl in 100 ml Redbull sugar free
Experimental: 150 μl of the each sample was added to 100 ml Redbull sugar free and mixed. The taste profiles of the samples were compared. As a control, a RedBull sugar free sample without the addition of SteviAroma was used.
Before tasting the tasters discussed the upcoming series of samples and tasted samples with predetermined attributes with varying intensities to find a commonality in description. Four trained tasters blind taste tested independently all samples of a series. They were allowed to re-taste and made notes for the sensory attributes perceived including the relative intensity.
In the last step the attributes noted were discussed openly to find an acceptable description. In case that more than 1 taster disagreed with the description, the tasting was repeated.

[4] = Assay to test Reducing Power (iron-III reduction test for anti-oxidant potential); settings: combinations of amino acids and Reb-A, 10 mM, pH 7.8, 100° C., diluted 1:10 (FIG. 49)
Experimental: 0.2 M Sodium phosphate buffer, pH=6.6; 500 mg Potassium ferric(III)cyanide/50 mL water, 10% Trichloroacetic acid; 20 mg Iron-III-Chloride/20 mL water; Calibration samples were prepared with Ascorbic acid in a concentration of 0-100 μg/mL 0.2 M Sodium phosphate buffer, pH=6.6 (freshly prepared); as negative control sample water was used.
Samples in aqueous solution were used as such or diluted in 0.2 M Sodium phosphate buffer, pH=6.6.
A 1 mL sample (or calibration standard) was mixed with 1 mL 0.2 M Sodium phosphate buffer, pH=6.6 and 1 mL Potassium ferricyanide solution. The sample was incubated and protected from light at 50° C. for 20 min.
To the solution was added 1 mL Trichloroacetic acid with thorough mixing.
A 1 mL of the mixture was diluted with 1 mL H2O and 0.2 mL Iron-Ill-chloride and reacted for 10 minutes; The absorbance was then determined at 700 nm against H2O.
10 mM of amino acid and/or 10 mM sugar were dissolved in 10 ml 0.1 mM KH2PO4-buffer, pH=7.8. […]
1 ml sample (or calibration standard) solution) was mixed with 0.2 M Sodium phosphate buffer (pH=6.6) and 1 ml Potassium ferric(III)cyanide solution in water (1% w/v) and incubated at 50° C. for 20 minutes. […] The sample was incubated for 10 minutes and absorbance read at 700 nm against a water control. […]
Quantification was performed by linear regression of calibration test results for ascorbic acid. […]

[5] = Assay to test DPPH radical-scavenging activity; settings: combinations of amino acids and Reb-A, 10 mM, pH 7.8, 100° C., diluted 1:10 (FIG. 50)
Experimental: 1 mg 1,1-Diphenyl-2-picrylhydrazyl radical (DPPH)/ml ethanol, dilution to assay concentration were prepared in ethanol (40 μg/mL); Calibration samples were prepared with Ascorbic acid in a concentration of 0-10 μg/mL; as a negative control sample, water was used.
Samples in aqueous solution were used as such or diluted with water.
A 0.1 ml sample (or calibration standard) was mixed with 3.9 ml solution of DPPH° (100 μMolar) and reacted while protected from light at room temperature for 30 min. Absorbance was determined at 517 nm against ethanol.
10 mM of amino acid and/or 10 mM sugar were dissolved in 10 ml 0.1 mM KH2PO4-buffer, pH=7.8.
The samples were kept at 100° C. in sealed glass vials (Pyrex 15 ml with screw caps) for 0 (before reaction), 2.5 or 5.0 hours. Thereafter the samples were transferred to an ice water bath and cooled down to room temperature. These samples were diluted 1:10 and used for the test assay for anti-oxidant potential. […]
0.2 ml sample (or calibration standard) solution was mixed with 0.2 ml solution of DPPH® (0.1 mM) and 3.6 ml methanol. […] After 3 minutes the absorbance at 517 nm was obtained against ethanol. Quantification was performed by linear regression of calibration test results for ascorbic acid. […]

OC[C@@H](O)[C@@H](O)[C@H](O)[C@H](O)CO [D-mannitol]
natural sweetness [1]: 0.55-0.65 times of that of sugar

COc1ccc(CCC(=O)c2c(O)cc(O[C@@H]3O[C@H](CO)[C@@H](O)[C@H](O)[C@H]3O[C@@H]3O[C@@H](C)[C@H](O)[C@@H](O)[C@H]3O)cc2O)cc1O [NHDC, Neohesperidin dihydrochalcone]
sensory properties of combinations with NHDC [2]: long lasting lingering; also recorded: boosts the lingering
taste profile in sugarfree beverage [3]: improved the mouth-feel and harmony of taste impression yielding a substantially improved taste profile

C=C1C[C@@]23CC[C@H]4[C@@](C)(CCC[C@@]4(C)C(=O)O[C@@H]4O[C@H](CO)[C@@H](O)[C@H](O)[C@H]4O)[C@@H]2CC[C@]1(O[C@@H]1O[C@H](CO)[C@@H](O)[C@H](O[C@@H]2O[C@H](CO)[C@@H](O)[C@H](O)[C@H]2O)[C@H]1O[C@@H]1O[C@H](CO)[C@@H](O)[C@H](O)[C@H]1O)C3 [Reb-A, Rebaudioside A]
active iron-III reduction (anti-oxidant properties) [4]: substantial anti-oxidant properties
radical scavenging properties (anti-oxidant properties) [5]: substantial anti-oxidant properties

C[C@H](CC[C@@H](O[C@@H]1O[C@H](CO)[C@@H](O)[C@H](O)[C@H]1O[C@@H]1O[C@H](CO)[C@@H](O)[C@H](O)[C@H]1O)C(C)(C)O)[C@H]1CC[C@@]2(C)[C@H]3CC=C4[C@@H](CC[C@H](O[C@@H]5O[C@H](CO[C@@H]6O[C@H](CO)[C@@H](O)[C@H](O)[C@H]6O)[C@@H](O)[C@H](O)[C@H]5O)C4(C)C)[C@]3(C)[C@H](O)C[C@]12C [mogroside IV]
natural sweetness [1]: 126 times of that of sugar

C[C@H](CC[C@@H](O[C@@H]1O[C@H](CO[C@@H]2O[C@H](CO)[C@@H](O)[C@H](O)[C@H]2O)[C@@H](O)[C@H](O)[C@H]1O[C@@H]1O[C@H](CO)[C@@H](O)[C@H](O)[C@H]1O)C(C)(C)O)[C@H]1CC[C@@]2(C)[C@@H]3CC=C4[C@@H](CC[C@H](O[C@@H]5O[C@H](CO[C@@H]6O[C@H](CO)[C@@H](O)[C@H](O)[C@H]6O)[C@@H](O)[C@H](O)[C@H]5O)C4(C)C)[C@]3(C)[C@H](O)C[C@]12C [mogroside V]
natural sweetness [1]: 256-344 times of that of sugar
